Biological target: xanthine oxidase (Homo sapiens, UniProt P47989)
Experiment: Xanthine oxidase inhibitory activity
Format: biochemical
Conditions: relative to allopurinol

Chain of xanthine oxidase (P47989 whole entry, species assumed): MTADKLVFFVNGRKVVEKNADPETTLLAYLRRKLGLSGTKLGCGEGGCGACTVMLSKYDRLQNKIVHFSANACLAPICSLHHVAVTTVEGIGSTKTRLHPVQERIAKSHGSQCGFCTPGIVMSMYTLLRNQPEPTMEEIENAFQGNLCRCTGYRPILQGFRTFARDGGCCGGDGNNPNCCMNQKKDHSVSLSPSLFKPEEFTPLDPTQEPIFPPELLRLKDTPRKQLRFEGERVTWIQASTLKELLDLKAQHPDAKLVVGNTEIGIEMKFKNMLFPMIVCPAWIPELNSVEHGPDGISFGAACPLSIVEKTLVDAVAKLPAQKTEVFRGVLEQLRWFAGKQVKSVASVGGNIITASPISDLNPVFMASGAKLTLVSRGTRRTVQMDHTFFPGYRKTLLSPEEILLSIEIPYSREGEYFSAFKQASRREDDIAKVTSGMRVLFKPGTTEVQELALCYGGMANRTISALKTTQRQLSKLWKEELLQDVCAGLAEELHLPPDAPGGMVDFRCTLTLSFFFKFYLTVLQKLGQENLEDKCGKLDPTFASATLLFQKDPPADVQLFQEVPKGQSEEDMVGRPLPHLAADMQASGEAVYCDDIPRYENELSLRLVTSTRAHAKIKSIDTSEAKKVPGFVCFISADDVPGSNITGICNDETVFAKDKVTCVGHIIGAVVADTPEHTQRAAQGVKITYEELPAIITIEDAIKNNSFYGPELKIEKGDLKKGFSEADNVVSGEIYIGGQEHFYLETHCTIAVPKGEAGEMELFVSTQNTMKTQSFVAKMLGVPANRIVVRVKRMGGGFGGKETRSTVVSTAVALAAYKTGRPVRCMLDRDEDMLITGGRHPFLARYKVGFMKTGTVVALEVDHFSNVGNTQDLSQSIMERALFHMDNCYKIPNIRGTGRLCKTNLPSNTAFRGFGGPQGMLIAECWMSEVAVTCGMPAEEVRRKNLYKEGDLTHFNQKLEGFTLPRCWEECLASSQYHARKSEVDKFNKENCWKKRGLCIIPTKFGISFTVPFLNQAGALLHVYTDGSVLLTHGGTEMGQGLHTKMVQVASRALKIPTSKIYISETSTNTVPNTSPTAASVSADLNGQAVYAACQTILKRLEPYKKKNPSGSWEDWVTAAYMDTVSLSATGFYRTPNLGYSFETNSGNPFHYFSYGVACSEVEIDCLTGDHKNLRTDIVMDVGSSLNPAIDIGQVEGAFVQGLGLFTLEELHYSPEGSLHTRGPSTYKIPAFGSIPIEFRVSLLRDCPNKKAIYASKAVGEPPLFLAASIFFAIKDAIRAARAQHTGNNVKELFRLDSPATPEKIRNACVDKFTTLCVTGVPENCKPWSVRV

xanthine oxidase inhibitory activity, fold higher than allopurinol [fold]	Compound
63	O=C(/C=C/c1ccc(O)c(O)c1)c1ccc(O)c(O)c1O [okanin, 3,4,2′,3′,4′-pentahydroxy trans-chalcone]
17	O=c1c(O)c(-c2ccc(O)c(O)c2)oc2c(O)c(O)ccc12 [melanoxetin, 3,7,8,3′,4′-pentahydroxyflavone]

Reference: patent US9833490B1, “Drug combination for the treatment of infertility and its preparation methods and applications” (SICHUAN SHANZE BIOTECH.,LTD., priority 2017, dated 2017)
